# Experimental data: US10231453B2, “5-substituted imidazole derivatives” (BAYER CROPSCIENCE AKTIENGESELLSCHAFT, priority 2015, dated 2019)
# System: not listed separately
# Experiment: Measurement of LogP values by HPLC on reversed phase columns (EEC directive 79/831 Annex V.A8)
# Type: physicochemical
# Settings: method [a]: LC-UV, acidic range, 0.1% formic acid in water and acetonitrile as eluent; Table 1
# Experimental: Measurement of Log P values was performed as outlined above.
row,Compound,chromatographic logP
1,OC(Cc1cccc(Cl)c1Cl)(Cn1cncc1Cl)C1(Cl)CC1 (stereo not shown) [Example I-66],2.69
2,Cc1cncn1CC(O)(C(F)c1ccccc1Cl)C1(Cl)CC1 (stereo not shown) [Example I-13],1.75
3,OC(Cc1ccccc1Cl)(Cn1cncc1C(F)(F)F)C1(Cl)CC1 (stereo not shown) [Example I-15],3.63
4,COc1ccccc1CC(O)(Cn1cncc1C#N)C1(Cl)CC1 (stereo not shown) [Example I-55],2.93
5,OC(Cn1cncc1Br)(C(F)c1ccccc1Cl)C1(Cl)CC1 (stereo not shown) [Example I-23],2.32
6,OC(Cc1ccc(F)cc1)(Cn1cncc1Cl)C1(Cl)CC1 (stereo not shown) [Example I-158],2.13
7,N#Cc1cncn1CC(O)(Cc1cc(F)ncc1Cl)C1(Cl)CC1 (stereo not shown) [Example I-165],2.38
8,OC(Cn1cncc1Cl)(C(F)c1ccccc1Cl)C1(Cl)CC1 (stereo not shown) [Example I-05],2.17
9,Cc1cncn1CC(O)(Cc1ccccc1Cl)C1(Cl)CC1 (stereo not shown) [Example I-03],1.72

# System: Alternaria brassicae
# Experiment: In vivo preventive test on Alternaria brassicae (leaf spot on radish), Examples A and R1
# Settings: Alternaria brassicae, 144 h, 500 ppm of active ingredient, preventive spray, evaluated 6 days after inoculation, read-out: efficacy
row,Compound,pest or weed control at 500 ppm [%]
1,OC(Cc1cccc(Cl)c1Cl)(Cn1cncc1Cl)C1(Cl)CC1 (stereo not shown) [Example I-66],70 to 79
2,Cc1cncn1CC(O)(C(F)c1ccccc1Cl)C1(Cl)CC1 (stereo not shown) [Example I-13],70 to 79
3,OC(Cc1ccccc1Cl)(Cn1cncc1C(F)(F)F)C1(Cl)CC1 (stereo not shown) [Example I-15],90 to 100
4,COc1ccccc1CC(O)(Cn1cncc1C#N)C1(Cl)CC1 (stereo not shown) [Example I-55],80 to 89
5,OC(Cn1cncc1Br)(C(F)c1ccccc1Cl)C1(Cl)CC1 (stereo not shown) [Example I-23],80 to 89
6,Cc1cncn1CC(O)(Cc1ccccc1Cl)C1(Cl)CC1 (stereo not shown) [Example I-03],80 to 89

# Same assay, conditions: Alternaria brassicae, 144 h, Example R1, rate of application 100 ppm, read-out: Efficacy in %
row,Compound,pest or weed control at 100 ppm [%]
1,Cc1cncn1CC(O)(Cc1ccccc1Cl)C1(Cl)CC1 (stereo not shown) [Example I-03],0

# Same assay, conditions: Alternaria brassicae, 144 h, Example R1, rate of application 500 ppm, read-out: Efficacy in %
row,Compound,pest or weed control at 500 ppm [%]
1,Cc1cncn1CC(O)(Cc1ccccc1Cl)C1(Cl)CC1 (stereo not shown) [Example I-03],83

# System: Botrytis cinerea
# Experiment: In vivo preventive test on Botrytis cinerea (grey mould) on gherkin, Examples B, Q1 and R2
# Settings: Botrytis cinerea, 500 ppm of active ingredient, preventive spray, evaluated 4 to 5 days after inoculation, read-out: efficacy
row,Compound,pest or weed control at 500 ppm [%]
1,OC(Cc1cccc(Cl)c1Cl)(Cn1cncc1Cl)C1(Cl)CC1 (stereo not shown) [Example I-66],70 to 79
2,Cc1cncn1CC(O)(C(F)c1ccccc1Cl)C1(Cl)CC1 (stereo not shown) [Example I-13],80 to 89
3,OC(Cc1ccccc1Cl)(Cn1cncc1C(F)(F)F)C1(Cl)CC1 (stereo not shown) [Example I-15],70 to 79
4,COc1ccccc1CC(O)(Cn1cncc1C#N)C1(Cl)CC1 (stereo not shown) [Example I-55],90 to 100
5,OC(Cc1ccc(F)cc1)(Cn1cncc1Cl)C1(Cl)CC1 (stereo not shown) [Example I-158],90 to 100
6,OC(Cn1cncc1Cl)(C(F)c1ccccc1Cl)C1(Cl)CC1 (stereo not shown) [Example I-05],90 to 100

# System: Puccinia recondita
# Experiment: In vivo preventive test on Puccinia recondita (brown rust on wheat), Examples C and R3
# Settings: Puccinia recondita, 264 h; 500 ppm of active ingredient; wheat, preventive spray, evaluated 11 days after inoculation; read-out: efficacy
row,Compound,pest or weed control at 500 ppm [%]
1,OC(Cc1cccc(Cl)c1Cl)(Cn1cncc1Cl)C1(Cl)CC1 (stereo not shown) [Example I-66],90 to 100
2,Cc1cncn1CC(O)(C(F)c1ccccc1Cl)C1(Cl)CC1 (stereo not shown) [Example I-13],80 to 89
3,OC(Cc1ccccc1Cl)(Cn1cncc1C(F)(F)F)C1(Cl)CC1 (stereo not shown) [Example I-15],80 to 89
4,COc1ccccc1CC(O)(Cn1cncc1C#N)C1(Cl)CC1 (stereo not shown) [Example I-55],90 to 100
5,OC(Cn1cncc1Br)(C(F)c1ccccc1Cl)C1(Cl)CC1 (stereo not shown) [Example I-23],90 to 100
6,OC(Cc1ccc(F)cc1)(Cn1cncc1Cl)C1(Cl)CC1 (stereo not shown) [Example I-158],80 to 89
7,N#Cc1cncn1CC(O)(Cc1cc(F)ncc1Cl)C1(Cl)CC1 (stereo not shown) [Example I-165],90 to 100
8,OC(Cn1cncc1Cl)(C(F)c1ccccc1Cl)C1(Cl)CC1 (stereo not shown) [Example I-05],80 to 89
9,Cc1cncn1CC(O)(Cc1ccccc1Cl)C1(Cl)CC1 (stereo not shown) [Example I-03],80 to 89

# Same assay, conditions: Puccinia recondita, 264 h; Example R3, wheat, preventive spray, 100 ppm, evaluated 11 days after inoculation; read-out: Efficacy in %
row,Compound,pest or weed control at 100 ppm [%]
1,Cc1cncn1CC(O)(Cc1ccccc1Cl)C1(Cl)CC1 (stereo not shown) [Example I-03],86

# Same assay, conditions: Puccinia recondita, 264 h; Example R3, wheat, preventive spray, 500 ppm, evaluated 11 days after inoculation; read-out: Efficacy in %
row,Compound,pest or weed control at 500 ppm [%]
1,Cc1cncn1CC(O)(Cc1ccccc1Cl)C1(Cl)CC1 (stereo not shown) [Example I-03],86

# System: Pyrenophora teres
# Experiment: In vivo preventive test on Pyrenophora teres (net blotch on barley), Examples D, Q2 and R4
# Settings: Pyrenophora teres, 336 h, 500 ppm of active ingredient, preventive spray, evaluated 14 days after inoculation, read-out: efficacy
row,Compound,pest or weed control at 500 ppm [%]
1,OC(Cc1cccc(Cl)c1Cl)(Cn1cncc1Cl)C1(Cl)CC1 (stereo not shown) [Example I-66],90 to 100
2,Cc1cncn1CC(O)(C(F)c1ccccc1Cl)C1(Cl)CC1 (stereo not shown) [Example I-13],80 to 89
3,OC(Cc1ccccc1Cl)(Cn1cncc1C(F)(F)F)C1(Cl)CC1 (stereo not shown) [Example I-15],90 to 100
4,COc1ccccc1CC(O)(Cn1cncc1C#N)C1(Cl)CC1 (stereo not shown) [Example I-55],80 to 89
5,OC(Cn1cncc1Br)(C(F)c1ccccc1Cl)C1(Cl)CC1 (stereo not shown) [Example I-23],80 to 89
6,OC(Cc1ccc(F)cc1)(Cn1cncc1Cl)C1(Cl)CC1 (stereo not shown) [Example I-158],90 to 100

# System: Septoria tritici
# Experiment: In vivo preventive test on Septoria tritici (leaf spot on wheat), Examples E, Q3 and R5
# Settings: Zymoseptoria tritici, 576 h, 500 ppm of active ingredient; wheat, preventive spray, evaluated 24 days after inoculation; read-out: efficacy
row,Compound,pest or weed control at 500 ppm [%]
1,OC(Cc1cccc(Cl)c1Cl)(Cn1cncc1Cl)C1(Cl)CC1 (stereo not shown) [Example I-66],90 to 100
2,Cc1cncn1CC(O)(C(F)c1ccccc1Cl)C1(Cl)CC1 (stereo not shown) [Example I-13],90 to 100
3,OC(Cc1ccccc1Cl)(Cn1cncc1C(F)(F)F)C1(Cl)CC1 (stereo not shown) [Example I-15],90 to 100
4,COc1ccccc1CC(O)(Cn1cncc1C#N)C1(Cl)CC1 (stereo not shown) [Example I-55],90 to 100
5,OC(Cn1cncc1Br)(C(F)c1ccccc1Cl)C1(Cl)CC1 (stereo not shown) [Example I-23],90 to 100
6,OC(Cc1ccc(F)cc1)(Cn1cncc1Cl)C1(Cl)CC1 (stereo not shown) [Example I-158],90 to 100
7,N#Cc1cncn1CC(O)(Cc1cc(F)ncc1Cl)C1(Cl)CC1 (stereo not shown) [Example I-165],90 to 100
8,OC(Cn1cncc1Cl)(C(F)c1ccccc1Cl)C1(Cl)CC1 (stereo not shown) [Example I-05],80 to 89
9,Cc1cncn1CC(O)(Cc1ccccc1Cl)C1(Cl)CC1 (stereo not shown) [Example I-03],90 to 100

# Same assay, conditions: Zymoseptoria tritici, 576 h, Example R5, wheat, preventive spray, 100 ppm, evaluated 24 days after inoculation; read-out: Efficacy in %
row,Compound,pest or weed control at 100 ppm [%]
1,Cc1cncn1CC(O)(Cc1ccccc1Cl)C1(Cl)CC1 (stereo not shown) [Example I-03],83

# Same assay, conditions: Zymoseptoria tritici, 576 h, Example R5, wheat, preventive spray, 500 ppm, evaluated 24 days after inoculation; read-out: Efficacy in %
row,Compound,pest or weed control at 500 ppm [%]
1,Cc1cncn1CC(O)(Cc1ccccc1Cl)C1(Cl)CC1 (stereo not shown) [Example I-03],100

# System: Sphaerotheca fuliginea
# Experiment: In vivo preventive test on Sphaerotheca fuliginea (powdery mildew on cucurbits), Examples F and R6
# Settings: Podosphaera fuliginea, 360 h; 500 ppm of active ingredient; gherkin, preventive spray, evaluated 15 days after inoculation; read-out: efficacy
row,Compound,pest or weed control at 500 ppm [%]
1,OC(Cc1cccc(Cl)c1Cl)(Cn1cncc1Cl)C1(Cl)CC1 (stereo not shown) [Example I-66],90 to 100
2,Cc1cncn1CC(O)(C(F)c1ccccc1Cl)C1(Cl)CC1 (stereo not shown) [Example I-13],90 to 100
3,OC(Cc1ccccc1Cl)(Cn1cncc1C(F)(F)F)C1(Cl)CC1 (stereo not shown) [Example I-15],90 to 100
4,COc1ccccc1CC(O)(Cn1cncc1C#N)C1(Cl)CC1 (stereo not shown) [Example I-55],90 to 100
5,OC(Cn1cncc1Br)(C(F)c1ccccc1Cl)C1(Cl)CC1 (stereo not shown) [Example I-23],90 to 100
6,OC(Cc1ccc(F)cc1)(Cn1cncc1Cl)C1(Cl)CC1 (stereo not shown) [Example I-158],90 to 100
7,N#Cc1cncn1CC(O)(Cc1cc(F)ncc1Cl)C1(Cl)CC1 (stereo not shown) [Example I-165],90 to 100
8,OC(Cn1cncc1Cl)(C(F)c1ccccc1Cl)C1(Cl)CC1 (stereo not shown) [Example I-05],90 to 100
9,Cc1cncn1CC(O)(Cc1ccccc1Cl)C1(Cl)CC1 (stereo not shown) [Example I-03],90 to 100

# Same assay, conditions: Podosphaera fuliginea, 360 h; Example R6, gherkin, preventive spray, 100 ppm, evaluated 15 days after inoculation; read-out: Efficacy in %
row,Compound,pest or weed control at 100 ppm [%]
1,Cc1cncn1CC(O)(Cc1ccccc1Cl)C1(Cl)CC1 (stereo not shown) [Example I-03],85

# Same assay, conditions: Podosphaera fuliginea, 360 h; Example R6, gherkin, preventive spray, 500 ppm, evaluated 15 days after inoculation; read-out: Efficacy in %
row,Compound,pest or weed control at 500 ppm [%]
1,Cc1cncn1CC(O)(Cc1ccccc1Cl)C1(Cl)CC1 (stereo not shown) [Example I-03],100

# System: Uromyces appendiculatus
# Experiment: In vivo preventive test on Uromyces appendiculatus (bean rust), Examples G and R7
# Settings: 264 h, 500 ppm of active ingredient, bean, preventive spray, evaluated 11 days after inoculation, read-out: efficacy
row,Compound,pest or weed control at 500 ppm [%]
1,OC(Cc1cccc(Cl)c1Cl)(Cn1cncc1Cl)C1(Cl)CC1 (stereo not shown) [Example I-66],90 to 100
2,OC(Cc1ccccc1Cl)(Cn1cncc1C(F)(F)F)C1(Cl)CC1 (stereo not shown) [Example I-15],90 to 100
3,COc1ccccc1CC(O)(Cn1cncc1C#N)C1(Cl)CC1 (stereo not shown) [Example I-55],90 to 100
4,OC(Cn1cncc1Br)(C(F)c1ccccc1Cl)C1(Cl)CC1 (stereo not shown) [Example I-23],90 to 100
5,OC(Cc1ccc(F)cc1)(Cn1cncc1Cl)C1(Cl)CC1 (stereo not shown) [Example I-158],90 to 100
6,N#Cc1cncn1CC(O)(Cc1cc(F)ncc1Cl)C1(Cl)CC1 (stereo not shown) [Example I-165],90 to 100
7,OC(Cn1cncc1Cl)(C(F)c1ccccc1Cl)C1(Cl)CC1 (stereo not shown) [Example I-05],90 to 100
8,Cc1cncn1CC(O)(Cc1ccccc1Cl)C1(Cl)CC1 (stereo not shown) [Example I-03],90 to 100

# Same assay, conditions: 264 h, Example R7, bean, preventive spray, 100 ppm, evaluated 11 days after inoculation, read-out: Efficacy in %
row,Compound,pest or weed control at 100 ppm [%]
1,Cc1cncn1CC(O)(Cc1ccccc1Cl)C1(Cl)CC1 (stereo not shown) [Example I-03],81

# Same assay, conditions: 264 h, Example R7, bean, preventive spray, 500 ppm, evaluated 11 days after inoculation, read-out: Efficacy in %
row,Compound,pest or weed control at 500 ppm [%]
1,Cc1cncn1CC(O)(Cc1ccccc1Cl)C1(Cl)CC1 (stereo not shown) [Example I-03],100

# System: Alternaria solani
# Experiment: In vivo preventive Alternaria test (tomatoes), Example H
# Settings: 72 h, 100 ppm of active ingredient, preventive spray, evaluated 3 days after inoculation, read-out: efficacy
row,Compound,pest or weed control at 100 ppm [%]
1,OC(Cc1ccc(F)cc1)(Cn1cncc1Cl)C1(Cl)CC1 (stereo not shown) [Example I-158],90 to 100
2,OC(Cn1cncc1Cl)(C(F)c1ccccc1Cl)C1(Cl)CC1 (stereo not shown) [Example I-05],70 to 79

# System: Phakopsora pachyrhizi
# Experiment: In vivo preventive Phakopsora test (soybeans), Example I
# Settings: 168 h, 100 ppm of active ingredient, preventive spray, evaluated 7 days after inoculation, read-out: efficacy
row,Compound,pest or weed control at 100 ppm [%]
1,OC(Cn1cncc1Br)(C(F)c1ccccc1Cl)C1(Cl)CC1 (stereo not shown) [Example I-23],90 to 100
2,OC(Cc1ccc(F)cc1)(Cn1cncc1Cl)C1(Cl)CC1 (stereo not shown) [Example I-158],90 to 100
3,OC(Cn1cncc1Cl)(C(F)c1ccccc1Cl)C1(Cl)CC1 (stereo not shown) [Example I-05],90 to 100

# System: Blumeria graminis fsp. hordei
# Experiment: In vivo preventive Blumeria test (barley), Example K
# Settings: 168 h, 500 ppm of active ingredient, preventive spray, evaluated 7 days after inoculation, read-out: efficacy
# Description: After the spray coating has been dried, the plants are dusted with spores of Blumeria graminis fsp. hordei.
row,Compound,pest or weed control at 500 ppm [%]
1,N#Cc1cncn1CC(O)(Cc1cc(F)ncc1Cl)C1(Cl)CC1 (stereo not shown) [Example I-165],90 to 100

# System: Pyricularia oryzae
# Experiment: whole plant or invertebrate
# Type: in vivo
# Settings: 192 h, read-out: efficacy
row,Compound,pest or weed control at 500 ppm [%]
1,N#Cc1cncn1CC(O)(Cc1cc(F)ncc1Cl)C1(Cl)CC1 (stereo not shown) [Example I-165],90 to 100
